Consider one molecule from ChEMBL document CHEMBL3797102, “Drug trapping in hERG K+ channels: (not) a matter of drug size?” (Medchemcomm, 2016).

Holding throughout (assay type): cell-based
Series [1] has as its target T1, hERG (KCNH2), wild type (Homo sapiens, UniProt Q12809). Kind of series: Inhibition of wild type human ERG channel expressed in Xenopus laevis oocytes assessed as first current amplitude after resting period of 300 secs followed by single test pulse at -100 mV holding potential by two-electrode voltage clamp method. Further details: scale not given: the % may be the effect or the level left; call rule not given here. Conditions: read-out: Activity. A general note: Two-electrode voltage clamp holds a large cell at a set potential and records current.

In series [2] the target is T2, Voltage-gated inwardly rectifying potassium channel KCNH2 (Homo sapiens, UniProt Q12809). Kind of series: Inhibition of wild type human ERG channel expressed in Xenopus laevis oocytes assessed as use dependent steady state block of induced K+ current at 150 uM preincubated for 330 secs followed by pulse train at 1 Hz at holding potential -100 mV by two-electrode voltage clamp method.

Series [3] deals with T2, Voltage-gated inwardly rectifying potassium channel KCNH2. Briefly: Inhibition of wild type human ERG channel expressed in Xenopus laevis oocytes assessed as time taken for use dependent steady state block of K+ current at 150 uM preincubated for 330 secs followed by pulse train at 1 Hz at holding potential -100 mV by two-electrode voltage clamp method.
For series [4], the target named is T1, hERG (KCNH2), wild type. Briefly: Inhibition of wild type human ERG channel expressed in Xenopus laevis oocytes assessed as use dependent steady state block of +20 mV-induced K+ current at 150 uM preincubated for 330 secs followed by pulse train at 1 Hz by two-electrode voltage clamp method.
Series [5] has as its target T2, Voltage-gated inwardly rectifying potassium channel KCNH2. Briefly: Inhibition of wild type human ERG channel expressed in Xenopus laevis oocytes assessed as recovery from channel block after resting period of 300 secs followed by single test pulse at -100 mV holding potential subsequently washed out at 0.3 Hz by two-electrode voltage clamp method. Also on record: scale not given: the % may be the effect or the level left. Conditions: 5 min.

Series [6] deals with hERG (KCNH2) Y652A mutant (Homo sapiens, UniProt Q12809, Y652A). Kind of series: Inhibition of human ERG channel Y652A mutant expressed in Xenopus laevis oocytes assessed as use dependent suppression of K+ current at 150 uM at 1 Hz equilibrated for 5 mins by two-electrode voltage clamp method.
For series [7], the target named is hERG (KCNH2) F656A mutant (Homo sapiens, UniProt Q12809, F656A). Briefly: Inhibition of human ERG channel F656A mutant expressed in Xenopus laevis oocytes assessed as use dependent suppression of tail current at 150 uM at -140 mV by two-electrode voltage clamp method.

The structures appear in SMILES notation.

T2 sequence (Q12809 whole entry): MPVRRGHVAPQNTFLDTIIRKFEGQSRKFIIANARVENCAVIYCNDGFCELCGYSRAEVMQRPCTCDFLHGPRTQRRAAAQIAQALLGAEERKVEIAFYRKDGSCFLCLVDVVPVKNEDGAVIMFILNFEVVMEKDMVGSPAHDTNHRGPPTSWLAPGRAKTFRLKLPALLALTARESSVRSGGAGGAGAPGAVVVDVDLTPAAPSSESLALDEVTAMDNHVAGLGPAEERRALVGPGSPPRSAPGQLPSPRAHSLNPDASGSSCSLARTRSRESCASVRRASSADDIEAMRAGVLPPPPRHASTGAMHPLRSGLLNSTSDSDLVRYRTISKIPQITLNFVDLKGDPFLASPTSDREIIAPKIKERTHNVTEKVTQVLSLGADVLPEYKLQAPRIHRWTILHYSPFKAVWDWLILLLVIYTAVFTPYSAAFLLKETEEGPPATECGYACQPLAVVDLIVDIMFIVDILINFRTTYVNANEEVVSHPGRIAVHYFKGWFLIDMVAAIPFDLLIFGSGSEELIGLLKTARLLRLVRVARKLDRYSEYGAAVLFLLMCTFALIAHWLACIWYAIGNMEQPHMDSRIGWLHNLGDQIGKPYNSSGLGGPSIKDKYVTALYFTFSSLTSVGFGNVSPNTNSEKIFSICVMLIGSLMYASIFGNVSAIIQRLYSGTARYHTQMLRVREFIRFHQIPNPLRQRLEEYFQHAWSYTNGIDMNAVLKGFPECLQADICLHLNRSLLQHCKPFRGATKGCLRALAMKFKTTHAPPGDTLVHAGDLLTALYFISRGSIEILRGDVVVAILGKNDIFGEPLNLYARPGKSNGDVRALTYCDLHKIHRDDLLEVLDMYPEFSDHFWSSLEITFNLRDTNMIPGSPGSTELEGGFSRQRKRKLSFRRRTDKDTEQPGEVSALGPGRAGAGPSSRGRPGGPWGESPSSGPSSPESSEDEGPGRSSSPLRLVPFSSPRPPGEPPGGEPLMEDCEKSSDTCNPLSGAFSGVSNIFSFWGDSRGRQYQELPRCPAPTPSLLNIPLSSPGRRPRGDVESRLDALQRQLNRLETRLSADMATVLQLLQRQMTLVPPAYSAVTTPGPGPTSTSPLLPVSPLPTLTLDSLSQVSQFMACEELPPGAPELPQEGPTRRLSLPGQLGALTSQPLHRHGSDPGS
T1 sequence (Q12809 whole entry): as above
Sequence of hERG (KCNH2) F656A mutant (Q12809 whole entry F656A): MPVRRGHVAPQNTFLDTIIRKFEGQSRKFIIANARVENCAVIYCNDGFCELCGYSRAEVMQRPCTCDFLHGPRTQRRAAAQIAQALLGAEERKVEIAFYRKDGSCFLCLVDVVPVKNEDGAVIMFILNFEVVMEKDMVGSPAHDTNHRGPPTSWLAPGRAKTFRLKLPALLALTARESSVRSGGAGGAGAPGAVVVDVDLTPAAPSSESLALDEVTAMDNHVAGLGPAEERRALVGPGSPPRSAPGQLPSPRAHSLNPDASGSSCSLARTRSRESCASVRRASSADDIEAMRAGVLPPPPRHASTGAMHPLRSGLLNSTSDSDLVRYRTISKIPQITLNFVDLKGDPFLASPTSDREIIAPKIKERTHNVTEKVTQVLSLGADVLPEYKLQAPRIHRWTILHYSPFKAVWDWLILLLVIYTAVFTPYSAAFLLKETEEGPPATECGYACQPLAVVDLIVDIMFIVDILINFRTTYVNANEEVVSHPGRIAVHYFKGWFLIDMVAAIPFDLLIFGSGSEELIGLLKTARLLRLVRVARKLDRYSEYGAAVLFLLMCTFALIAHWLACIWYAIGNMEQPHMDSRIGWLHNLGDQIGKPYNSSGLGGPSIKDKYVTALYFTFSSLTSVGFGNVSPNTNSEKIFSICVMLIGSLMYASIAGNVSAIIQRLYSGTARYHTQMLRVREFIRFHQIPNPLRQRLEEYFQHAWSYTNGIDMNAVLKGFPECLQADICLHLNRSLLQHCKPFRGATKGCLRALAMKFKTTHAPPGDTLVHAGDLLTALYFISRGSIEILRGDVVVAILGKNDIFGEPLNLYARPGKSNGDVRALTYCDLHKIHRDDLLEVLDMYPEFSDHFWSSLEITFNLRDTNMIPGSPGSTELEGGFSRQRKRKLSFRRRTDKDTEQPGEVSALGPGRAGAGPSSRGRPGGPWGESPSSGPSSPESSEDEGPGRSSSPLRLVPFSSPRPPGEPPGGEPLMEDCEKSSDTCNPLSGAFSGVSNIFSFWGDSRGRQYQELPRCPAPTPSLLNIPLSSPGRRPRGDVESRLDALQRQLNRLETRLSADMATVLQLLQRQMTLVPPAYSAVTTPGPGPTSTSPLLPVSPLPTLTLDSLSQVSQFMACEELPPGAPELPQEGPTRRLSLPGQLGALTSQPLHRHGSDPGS
Sequence of hERG (KCNH2) Y652A mutant (Q12809 whole entry Y652A): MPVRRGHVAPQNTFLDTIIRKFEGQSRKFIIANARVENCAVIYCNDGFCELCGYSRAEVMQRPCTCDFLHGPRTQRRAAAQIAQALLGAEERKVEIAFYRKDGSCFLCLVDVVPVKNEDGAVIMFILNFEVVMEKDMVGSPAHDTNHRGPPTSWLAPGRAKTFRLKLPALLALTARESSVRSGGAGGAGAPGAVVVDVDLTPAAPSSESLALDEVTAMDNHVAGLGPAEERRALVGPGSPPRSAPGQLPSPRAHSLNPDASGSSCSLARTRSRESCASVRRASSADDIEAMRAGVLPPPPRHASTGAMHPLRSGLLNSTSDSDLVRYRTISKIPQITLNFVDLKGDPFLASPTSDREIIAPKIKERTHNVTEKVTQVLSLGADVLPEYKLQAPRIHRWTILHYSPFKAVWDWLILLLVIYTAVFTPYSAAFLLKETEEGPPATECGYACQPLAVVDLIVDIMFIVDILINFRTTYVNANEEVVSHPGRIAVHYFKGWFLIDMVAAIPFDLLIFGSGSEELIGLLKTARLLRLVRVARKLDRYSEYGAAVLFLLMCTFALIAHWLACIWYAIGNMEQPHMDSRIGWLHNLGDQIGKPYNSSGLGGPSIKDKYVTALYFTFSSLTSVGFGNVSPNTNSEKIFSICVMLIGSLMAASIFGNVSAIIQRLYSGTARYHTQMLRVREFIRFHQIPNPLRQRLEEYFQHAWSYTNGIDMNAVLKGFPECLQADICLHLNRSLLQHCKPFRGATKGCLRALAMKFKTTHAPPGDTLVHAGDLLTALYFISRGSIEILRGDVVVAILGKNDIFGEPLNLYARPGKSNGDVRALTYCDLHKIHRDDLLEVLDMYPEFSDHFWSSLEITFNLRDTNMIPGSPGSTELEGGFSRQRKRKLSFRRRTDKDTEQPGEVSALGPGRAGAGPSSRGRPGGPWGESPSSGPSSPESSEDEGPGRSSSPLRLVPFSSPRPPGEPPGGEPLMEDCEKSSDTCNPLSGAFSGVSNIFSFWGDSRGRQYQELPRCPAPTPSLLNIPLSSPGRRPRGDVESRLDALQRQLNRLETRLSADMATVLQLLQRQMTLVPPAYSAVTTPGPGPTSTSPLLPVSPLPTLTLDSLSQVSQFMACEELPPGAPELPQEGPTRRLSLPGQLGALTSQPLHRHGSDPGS

With `O=C(CCc1ccccc1)c1ccccc1OCC(O)CN1CCN(C(c2ccccc2)(c2ccccc2)c2ccccc2)CC1` (configuration not stated), the activity at 5 min on hERG (KCNH2), wild type [1] was under 1%. Besides, in series [2], the “inhibition (INH)” value is on record as “Active”. In series [3], the Time is 15 s. In addition, the inhibition (usually the drop in the measured response relative to a control, in per cent) at 330 s, 150 µM on hERG (KCNH2), wild type [4] was 69%. Besides, the Activity in series [5] is recorded as 47.5%. Moreover, the inhibition at 5 min, 150 µM in series [6] came to 13.2%. Further, the inhibition at 150 µM in series [7] amounted to 18.3%.
